Measured values: patent US6737383B1, “Herbicidal oxadiazolidines” (priority 1999, dated 2004)

Key:
crabgrass = experiment: Test B pre/postemergence crabgrass; assay type: in vivo, Digitaria sanguinalis
Procedure, shortened: (§1)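 Response is a visual 0-to-10 score relative to untreated plants, where 0 means no effect and 10 means complete control, taken twelve to sixteen days after application. Treatments went onto soil at planting and onto foliage of 1- to 4-leaf plants, using a surfactant-containing non-phytotoxic solvent.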

purple nutsedge = experiment: Test B pre/postemergence purple nutsedge; assay type: in vivo, Cyperus rotundus
Procedure, shortened: as §1

duck salad = experiment: Test B flood test duck salad; assay type: in vivo, Heteranthera limosa; conditions: for Plant response rating, Ducksalad (0 to 10 scale, 0 is no effect, 10 is complete control): Rate 62 g/ha, Pre-emergence; for Plant response rating, Ducksalad (0 to 10 scale, 0 is no effect, 10 is complete control) / Ducksalad plant response rating (0 to 10 scale, 0 is no effect, 10 is complete control): flood test species, visual evaluation after twelve to sixteen days; for Ducksalad plant response rating (0 to 10 scale, 0 is no effect, 10 is complete control): Rate 125 g/ha, under heading Pre-emergence
Procedure, shortened: (§2)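 Each value is a visual injury score relative to controls, with 10 meaning complete control and 0 no effect. Evaluation took place twelve to sixteen days after the 2-leaf-stage plants were treated and kept in the greenhouse.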

bamyardgrass = experiment: Test B flood test barnyardgrass; assay type: in vivo, Echinochloa crus-galli; conditions: for Plant response rating, Barnyardgrass (0 to 10 scale, 0 is no effect, 10 is complete control): Rate 62 g/ha, Pre-emergence; for Plant response rating, Barnyardgrass (0 to 10 scale, 0 is no effect, 10 is complete control) / Barnyardgrass plant response rating (0 to 10 scale, 0 is no effect, 10 is complete control): flood test species, visual evaluation after twelve to sixteen days; for Barnyardgrass plant response rating (0 to 10 scale, 0 is no effect, 10 is complete control): Rate 125 g/ha, under heading Pre-emergence
Procedure, shortened: as §2

[1] = Postemergence, Rate 62 g/ha, scale 0 to 10, 0 is no effect, 10 is complete control
[2] = Postemergence, Rate 125 g/ha, scale of 0 to 10 where 0 is no effect and 10 is complete control
[3] = Postemergence, Rate 250 g/ha, scale of 0 to 10, 0 is no effect, 10 is complete control
[4] = Postemergence, Rate 500 g/ha, scale of 0 to 10 where 0 is no effect and 10 is complete control
[5] = Preemergence, Rate 62 g/ha, scale of 0 to 10 where 0 is no effect and 10 is complete control
[6] = Preemergence, Rate 125 g/ha, scale of 0 to 10 where 0 is no effect and 10 is complete control
[7] = Preemergence, Rate 250 g/ha, scale 0 to 10 (0 no effect, 10 complete control)
[8] = Preemergence, Rate 500 g/ha, scale of 0 to 10 where 0 is no effect and 10 is complete control
[9] = Rate 250 g/ha, Pre-emergence (flood test species), scale 0 to 10, 0 is no effect, 10 is complete control
[10] = Rate 500 g/ha, Pre-emergence section of Table B, 0 to 10 scale (0 no effect, 10 complete control)
[11] = Rate 500 g/ha, Postemergence, scale 0 to 10, 0 is no effect, 10 is complete control

Row | Compound | Plant response rating, Crabgrass (crabgrass; [1]) | Crabgrass plant response rating (crabgrass; [3]) | Crabgrass plant response rating (crabgrass; [5]) | Crabgrass plant response rating (crabgrass; [6]) | Plant response rating, Crabgrass (crabgrass; [7]) | Plant response rating, Crabgrass (crabgrass; [8]) | Plant response rating, Nutsedge (purple nutsedge; [1]) | Nutsedge plant response rating (purple nutsedge; [5]) | Nutsedge plant response rating (purple nutsedge; [6]) | Plant response rating, Nutsedge (purple nutsedge; [7]) | Plant response rating, Nutsedge (purple nutsedge; [8]) | Plant response rating, Ducksalad (0 to 10 scale, 0 is no effect, 10 is complete control) (duck salad) | Ducksalad plant response rating (0 to 10 scale, 0 is no effect, 10 is complete control) (duck salad) | Ducksalad plant response rating (duck salad; [9]) | Ducksalad plant response rating (duck salad; [10]) | Plant response rating, Barnyardgrass (0 to 10 scale, 0 is no effect, 10 is complete control) (bamyardgrass) | Barnyardgrass plant response rating (0 to 10 scale, 0 is no effect, 10 is complete control) (bamyardgrass) | Barnyardgrass plant response rating (bamyardgrass; [9]) | Barnyardgrass plant response rating (bamyardgrass; [10]) | other results
1 | CCCCCn1c(=O)on(C(=O)N(c2ccc(F)cc2F)C(C)C)c1=O [Compound 636] | 3 | 9 | 8 | 9 | 10 | 10 | 0 | 0 | 0 | 0 | 10 | 0 | 0 | 0 | 0 | 0 | 0 | 0 | 2 | Plant response rating, Crabgrass (crabgrass; [2]): 9; Plant response rating, Crabgrass (crabgrass; [4]): 9; Plant response rating, Nutsedge (purple nutsedge; [2]): 0; Nutsedge plant response rating (purple nutsedge; [3]): 0; Plant response rating, Nutsedge (purple nutsedge; [4]): 0
2 | CC[C@@H](C)n1c(=O)on(C(=O)N(c2ccc(F)cc2F)C(C)C)c1=O [Compound 667] | 6 | 9 | 8 | 8 | 10 | 10 | 0 | 0 | 0 | 3 | 7 | 0 | 0 | 0 | 0 | 0 | 0 | 0 | 0 | Crabgrass plant response rating (crabgrass; [2]): 8; Crabgrass plant response rating (crabgrass; [11]): 10; Nutsedge plant response rating (purple nutsedge; [2]): 0; Nutsedge plant response rating (purple nutsedge; [11]): 0
